In ChEMBL document CHEMBL3039007, “Structure-based identification of OATP1B1/3 inhibitors” (Mol Pharmacol, 2013) one finds residual activity data, which are given here for 38 compounds.

What is called residual activity is the signal under treatment as a percentage of the control signal.

Data set [1] addresses T1, Solute carrier organic anion transporter family member 1B3 (Homo sapiens, UniProt Q9NPD5).
T1 sequence (Q9NPD5 whole entry): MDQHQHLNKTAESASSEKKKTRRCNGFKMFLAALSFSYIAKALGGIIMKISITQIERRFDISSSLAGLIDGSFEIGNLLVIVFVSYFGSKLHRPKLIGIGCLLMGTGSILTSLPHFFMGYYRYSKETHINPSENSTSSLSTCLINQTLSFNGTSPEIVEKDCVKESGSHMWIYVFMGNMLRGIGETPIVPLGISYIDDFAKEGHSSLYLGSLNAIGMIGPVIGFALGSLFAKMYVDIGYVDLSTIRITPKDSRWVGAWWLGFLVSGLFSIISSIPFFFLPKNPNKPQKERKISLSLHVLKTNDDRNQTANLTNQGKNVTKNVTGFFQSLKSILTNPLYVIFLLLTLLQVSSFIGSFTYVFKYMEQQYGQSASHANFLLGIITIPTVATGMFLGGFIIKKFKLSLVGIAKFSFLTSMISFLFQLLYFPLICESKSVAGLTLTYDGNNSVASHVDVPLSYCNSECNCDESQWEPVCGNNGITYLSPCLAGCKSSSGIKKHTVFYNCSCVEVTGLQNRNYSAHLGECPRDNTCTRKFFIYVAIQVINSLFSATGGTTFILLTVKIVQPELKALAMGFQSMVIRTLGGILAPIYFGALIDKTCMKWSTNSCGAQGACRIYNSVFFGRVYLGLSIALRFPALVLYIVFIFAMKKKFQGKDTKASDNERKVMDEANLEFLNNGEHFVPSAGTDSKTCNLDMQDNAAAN
To be noted: chinese hamster, cho, 10 µM.

Data set [2] addresses T2, Solute carrier organic anion transporter family member 1B1 (Homo sapiens, UniProt Q9Y6L6).
T2 sequence (Q9Y6L6 whole entry): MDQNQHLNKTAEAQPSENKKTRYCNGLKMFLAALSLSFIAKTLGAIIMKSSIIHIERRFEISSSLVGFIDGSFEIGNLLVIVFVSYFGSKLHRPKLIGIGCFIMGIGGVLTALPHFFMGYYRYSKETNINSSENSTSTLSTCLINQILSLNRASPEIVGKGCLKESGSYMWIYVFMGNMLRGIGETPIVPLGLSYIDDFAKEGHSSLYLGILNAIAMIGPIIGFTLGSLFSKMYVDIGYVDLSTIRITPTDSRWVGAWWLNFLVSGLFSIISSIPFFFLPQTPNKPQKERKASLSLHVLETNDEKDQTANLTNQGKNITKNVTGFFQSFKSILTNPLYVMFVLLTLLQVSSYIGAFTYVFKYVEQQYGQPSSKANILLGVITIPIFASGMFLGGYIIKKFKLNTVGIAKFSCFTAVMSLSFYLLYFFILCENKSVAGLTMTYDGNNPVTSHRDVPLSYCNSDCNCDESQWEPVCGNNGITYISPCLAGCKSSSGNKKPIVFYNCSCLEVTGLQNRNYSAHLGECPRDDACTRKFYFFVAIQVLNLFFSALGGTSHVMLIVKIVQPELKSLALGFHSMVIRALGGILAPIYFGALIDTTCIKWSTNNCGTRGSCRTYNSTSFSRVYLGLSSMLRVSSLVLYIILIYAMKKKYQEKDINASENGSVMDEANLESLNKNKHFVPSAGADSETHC
The conditions noted are these: chinese hamster, cho, 10 µM.

With `CCC[C@@H]1C[C@@H](C(=O)N[C@@H]([C@H]2O[C@H](SC)[C@H](O)[C@@H](O)[C@H]2O)[C@@H](C)O)N(C)C1.Cl.O` [LINCOMYCIN HYDROCHLORIDE], the results for the residual activity in data set [1] and in data set [2] were 97.7% and 83.01%, respectively.
Take `COC(=O)C(N)CS.Cl` (stereo unspecified) [MECYSTEINE HYDROCHLORIDE]: the residual activity in data set [1] was determined as 99.55%; in data set [2], 97.76%.
`Cc1cc(C)nc(NS(=O)(=O)c2ccc(N)cc2)n1` [SULFAMETHAZINE]: the residual activity in data set [1] is 97.37%; in data set [2] it was 90.46%.
Consider `CN(C)C(=O)Nc1ccc(Cl)c(Cl)c1` [DCMU], for which the results for the residual activity in data set [1] and in data set [2] were 99% and 105.4%, respectively.
Taken in the same sequence, the figures for `COc1cc(NS(=O)(=O)c2ccc(N)cc2)ncn1` [SULFAMONOMETHOXINE] were 105.3% and 109.8%.
For `O=C1NC(=O)C(=O)C(=O)N1` [ALLOXAN] the same measures were 108.5% and 118.2%.
For `[N-]=[N+]=CC(=O)OC[C@H](N)C(=O)O` [AZASERINE] the same measures were 107.6% and 100.4%.
Take `COc1ccc(C[C@H]2NC[C@H](O)[C@H]2OC(C)=O)cc1` [ANISOMYCIN]: the residual activity is 81.11% in data set [1] and 81.33% in data set [2].
Taken in the same sequence, the figures for `Cl.O=C(O)C1=CCNCC1` [ISOGUVACINE HYDROCHLORIDE] were 103.5% and 113.5%.
Turning to `CC(C)CCC[C@@H](C)[C@H]1CC[C@H]2[C@@H]3CC[C@H]4CC(=O)CC[C@]4(C)[C@H]3CC[C@]12C` [CHOLESTAN-3-ONE], the residual activity came to 73.06% in data set [1] and 74.43% in data set [2].
Take `NCCc1c[nH]c2ccccc12` [TRYPTAMINE]: the residual activity turned out to be 104.1% in data set [1] and 101% in data set [2].
For `CC(=O)OCC(=O)[C@@]1(O)CC[C@H]2[C@@H]3CCC4=CC(=O)CC[C@]4(C)[C@H]3C(=O)C[C@@]21C` [CORTISONE ACETATE] the same measures were 98.8% and 103.3%.
With `Oc1c(I)cc(I)c2cccnc12` [IODOQUINOL], the residual activity is listed as 87.46% in data set [1] and 86.7% in data set [2].
For the compound `O=C1C[C@@H]2OCC=C3CN4CC[C@]56c7ccccc7N1[C@H]5[C@H]2[C@H]3C[C@H]46` [STRYCHNINE], the figures for the residual activity in data set [1] and in data set [2] were 93.97% and 79.74%, respectively.
Take `CC(=O)OCC1=C(C(=O)[O-])N2C(=O)[C@@H](NC(=O)CCC[C@@H](N)C(=O)O)[C@H]2SC1.[Na+]`: the residual activity was found to be 103.2% in data set [1] and 89.78% in data set [2].
Taken in the same sequence, the figures for `CN(C)[C@@H]1C(O)=C(C(N)=O)C(=O)[C@@]2(O)C(O)=C3C(=O)c4c(O)ccc(Cl)c4[C@@H](O)[C@H]3C[C@@H]12.Cl` [DEMECLOCYCLINE HYDROCHLORIDE] were 90.61% and 104.7%.
Taken in the same sequence, the figures for `O=c1c2ccccc2oc2ccccc12` [XANTHONE] were 131.5% and 123.7%.
In the case of `CC1(C)Oc2ccc3ccc(=O)oc3c2CC1O` (stereo unspecified) [LOMATIN], the residual activity is on record as 142.3% in data set [1] and 92.91% in data set [2].
Taken in the same sequence, the figures for `CCOCN(C(=O)CCl)c1c(C)cccc1CC` [ACETOCHLOR] were 84.4% and 74.59%.
Regarding `Cl.N[C@H]1C(O)O[C@H](CO)[C@@H](O)[C@@H]1O` (stereo partly specified) [GLUCOSAMINE HYDROCHLORIDE], the residual activity stood at 87.62% in data set [1] and 60.72% in data set [2].
As for `Cc1noc(NS(=O)(=O)c2ccc(N)cc2)c1C` [SULFISOXAZOLE], the values for the residual activity in data set [1] and in data set [2] were 90.16% and 78.99%, respectively.
Taken in the same sequence, the figures for `CC1=C2C(O)C(=O)OC3CC4C(C)(C)C(=O)C=C[C@]4(C)C(CC1)[C@]23C` (stereo partly specified) [MEROGEDUNIN] were 83.06% and 106.3%.
Regarding `CCCC(C)C1(CC)C(=O)[N-]C(=S)NC1=O.[Na+]` (stereo unspecified) [THIOPENTAL SODIUM], the results for the residual activity in data set [1] and in data set [2] were 84.51% and 73.02%, respectively.
As for `C[C@@H]1CC[C@H]2[C@](C)(CO)[C@@H](O)CC[C@]2(C)[C@@]12CC[C@@](CO)(CCO)O2` [LAGOCHILINE], the residual activity in data set [1] came out at 95.67%; in data set [2], 99.12%.
Regarding `Cc1cc(=O)c2c(O)c(C)c(O)cc2o1` [EUGENITOL], the residual activity is listed as 88.28% in data set [1] and 77.61% in data set [2].
Regarding `CN1[C@@H](CC(=O)c2ccccc2)CCC[C@H]1C[C@H](O)c1ccccc1.Cl` [LOBELINE HYDROCHLORIDE], the values for the residual activity in data set [1] and in data set [2] were 108.5% and 125.6%, respectively.
For the compound `C#CCOS(=O)OC1CCCCC1Oc1ccc(C(C)(C)C)cc1` (stereo unspecified) [PROPARGITE], the residual activity is recorded as 106% in data set [1] and 93.31% in data set [2].
With `C[N+]1(C)CCCC(OC(=O)C(O)(c2ccccc2)c2ccccc2)C1.[Br-]` (stereo unspecified) [MEPENZOLATE BROMIDE], the residual activity in data set [1] amounted to 106.1%; in data set [2], 121.8%.
Consider `COC(=O)c1cc(OC)c(=O)c2c(OC)c(OC)ccc2c1` [METHYL 7-DESOXYPURPUROGALLIN-7-CARBOXYLATE TRIMETHYL ETHER], for which the residual activity in data set [1] stood at 100.1%; in data set [2] it was 133.8%.
Regarding `CC(C)C[C@H](NC(=O)[C@H](Cc1ccccc1)NC(=O)CNC(=O)CNC(=O)[C@@H](N)Cc1ccc(O)cc1)C(=O)O` [ENKEPHALIN], the residual activity in data set [1] stood at 87.68%; in data set [2], 84.58%.
For `O=C(O)c1cc(O)c2c(c1)C(=O)c1cc(O)cc(O)c1C2=O` [EMODIC ACID] the same measures were 72.9% and 150%.
Taken in the same sequence, the figures for `O=C(NCO)c1cccnc1` [N-HYDROXYMETHYLNICOTINAMIDE] were 92.24% and 121.9%.
In the case of `CC(C)CCC[C@@H](C)[C@H]1CC[C@H]2[C@@H]3CC[C@@H]4C[C@H](O)CC[C@]4(C)[C@H]3CC[C@]12C` [EPICOPROSTEROL], the residual activity is given as 97.38% in data set [1] and 90.49% in data set [2].
Taken in the same sequence, the figures for `COc1cc(/C=C/C(=O)O)ccc1O` [FERULATE] were 82.81% and 60.24%.
Taken in the same sequence, the figures for `CC(=O)Oc1ccc2c(c1OC(C)=O)OC[C@]1(O)Cc3c(cc(OC(C)=O)c(OC(C)=O)c3OC(C)=O)[C@H]21` were 111.5% and 101.4%.
Taken in the same sequence, the figures for `CNC(=O)Oc1ccccc1OC(C)C` [PROPOXUR] were 109.6% and 104%.
`CN1CCCN=C1/C=C/c1cccs1.O=C(O)c1cc2ccccc2c(Cc2c(O)c(C(=O)O)cc3ccccc23)c1O` [PYRANTEL PAMOATE]: the residual activity came out at 34.84% in data set [1] and 31.41% in data set [2].
With `COc1cc(C(C)=O)cc(OC)c1O` [ACETOSYRINGONE], the residual activity in data set [1] is recorded as 115.4%; in data set [2], 104.7%.
